{
  "source": "patent US20240285700A1",
  "about": "“COMBINATION OF AN ONCOLYTIC VIRUS, AN ANTI-PD-1 INHIBITOR AND AN ACTIVATOR OF THE INNATE IMMUNE SYSTEM FOR USE IN THE TREATMENT OF PROSTATE CANCER” (priority 2021, published 2024)",
  "key": {"macrophages": {"tested_on": "macrophages", "settings": "more than forty polysaccharides tested; cited from earlier work"}, "Meth A sarcoma": {"tested_on": "Meth A sarcoma", "experiment": "Meth A sarcoma implanted in the skin of mice, glucan treatment", "assay_type": "in vivo, hybrid CB6 F1 (Balb/c×C 57131/6) mice", "description": "Meth A sarcoma was inoculated in the skin of hybrid CB6 F1 (Balb/c×C 57131/6) and grew progressive in immunized animals. […] When 5 mg of pure water-soluble aminated ß(1,3) glucan was injected intravenously or intraperitoneally on day 7, there was an almost immediate visible effect."}, "sarcoma SA-1": {"tested_on": "sarcoma SA-1", "experiment": "sarcoma SA-1 in syngeneic mice, glucan treatment", "assay_type": "in vivo, A strain mice", "from_the_text": "To decide whether the ß(1,3) glucan regression was peculiar to the Meth A tumor, we also performed experiments with sarcoma SA-1, syngeneic in A strain mice."}, "lethal virus infection": {"tested_on": "lethal virus infection", "experiment": "protection against lethal virus infection in mice", "assay_type": "in vivo", "settings": "not published", "from_the_text": "Following advanced experiment on carbohydrate chemistry at the Institute of Wood Chemistry at the University of Uppsala, the inventor was able to provide a water soluble, stimulatory aminated ß(1,3) glucan by treatment of natural, insoluble ß(1,3) with chloroacetaldehyde dimethyl acetal followed by reductive amination (3). The aminated ß(1,3) glucan derivative activated macrophages and thereby protected against otherwise lethal bacterial peritonitis in mice (4), as well as lethal virus infection in mice (not published)."}, "[1]": {"tested_on": "lethal bacterial peritonitis", "settings": "mice, cited from earlier work"}},
  "note": "“Also recorded” adds a separate entry of the source. Like-named read-outs stand apart in the source and are kept apart here.",
  "data": [
    {"substance": "aminated ß(1,3) glucan", "values": [
      {"measurement": "ability to stimulate macrophages in vitro", "setting": "macrophages", "value": "stimulatory"},
      {"measurement": "tumor appearance 1 hour after injection", "setting": "Meth A sarcoma; 5 mg intravenously on day 7, saline tumors reddish and bulging", "value": "collapsed and whitish-grey"},
      {"measurement": "histological examination of tumor site", "setting": "Meth A sarcoma; glucan-treated animals", "value": "acute inflammation around the tumor"},
      {"measurement": "effect on tumor in non-immunized animals or treated on day 1, 3", "setting": "Meth A sarcoma; non-immunized animals, or treatment on day 1, 3", "value": "little or no effect"},
      {"measurement": "condition of the animals after 200 days", "setting": "Meth A sarcoma; one injection on day 7", "value": "unaffected and vital"},
      {"measurement": "tumor at day 18-21 after inoculation", "setting": "Meth A sarcoma; one injection on day 7 (5 mg i.v. or i.p.)", "value": "No visible tumor; also recorded: completely replaced by scar tissue"},
      {"measurement": "effect on tumor in TxB animals", "setting": "Meth A sarcoma; thymectomized, x-ray irradiated and bonemarrow transplanted, day 8-14", "value": "no effect"},
      {"measurement": "cases in which tumors reappeared and resumed growth", "setting": "sarcoma SA-1; after 18-21 days", "value": "about one third"},
      {"measurement": "tumor regression compared with Meth A results", "setting": "sarcoma SA-1; sarcoma SA-1, A strain mice", "value": "essentially identical"},
      {"measurement": "protection against lethal virus infection", "setting": "lethal virus infection", "value": "protected"},
      {"measurement": "protection against otherwise lethal bacterial peritonitis", "setting": "[1]", "value": "protected"},
      {"measurement": "protection against otherwise lethal bacterial peritonitis", "setting": "[1]; listed as ß(1,3) glucan", "value": "sufficient to prevent a lethal outcome"}
    ]}
  ]
}
